Measurements from patent publication US11198710B2, “Transgenic plant having herbicide resistance” (priority 2016, dated 2021).
Read-outs that look alike come from different tables or passages of the source.

Assays:
TaQ8GTC0 protein = experiment: Glutathione conjugation activity of the TaQ8GTC0 protein to VLCFAE-inhibiting herbicides (HPLC); format: biochemical, wheat (Triticum aestivum); settings: 378 ng TaQ8GTC0 protein, 10 μl of 1 mM herbicide in 200 μl, 30° C., 15 minutes; mean ± standard deviation
Method: All the VLCFAE-inhibiting herbicides used in this example were added to the reaction mixture as acetone solutions. Conjugation reactions to the VLCFAE-inhibiting herbicides were performed in a reaction mixture (total amount: 200 μl) containing 50 μl of 100 mM potassium phosphate buffer (pH 6.8), 10 μl of 1 mM VLCFAE-inhibiting herbicide, 20 μl of 10 mM reduced glutathione (pH 7.0), 6 μl of the TaQ8GTC0 protein (378 ng in total, PBS buffer solution) and 114 μl of PBS buffer, the reaction was conducted at 30° C. for 15 minutes, the reaction product was filtered through a […], and 50 μl of the filtered solution was injected into HPLC. HPLC analysis conditions were as described below.
Apparatus: Agilent 1100 series
Column: CAPCELL PAK C18 AQ 4.6 mm (i.d.)×250 mm (SHISEIDO)
Mobile phase: acetonitrile/distilled water=5/95 (hold for 5 min)→(4 min)→40/60 (hold for 4 min)→(4 min)→90/10 (hold for 8 min)→(1 min)→5/95 (hold for 4 min) (each solvent containing 0.5% acetic acid)
When the activity of glutathione conjugation to VLCFAE-inhibiting herbicides was analyzed, the amount of glutathione conjugates (GS conjugates) produced was determined based on the amount of VLCFAE-inhibiting herbicides decreased in the reaction solution.
In Example 1, the conjugation activity to cafenstrole was determined via quantification of the compound released by the glutathione conjugation of this herbicide. In addition, peaks of GS conjugate of other herbicides (i.e., metolachlor, alachlor, flufenacet, mefenacet, phentolazamide, indanofan, anilofos, and piperophos) were unknown. When analyzing the glutathione conjugation activities to these herbicides, accordingly, glutathione conjugation reactions were performed to produce GS conjugate in the modified conditions (i.e., more amount of enzyme was added or the conjugation reaction was conducted for longer time) in the beginning to produce glutathione conjugates (GS conjugates), and the peaks were identified with LC/MS.

[1] = system: rice plants comprising the TaQ8GTC0 gene introduced therein; experiment: Herbicide resistance test of rice plants comprising the TaQ8GTC0 gene, gellan gum medium, plant height; format: in vivo; settings: lineage #3-13; minimal concentration (×1), ×4 and ×16 of Table 4
Method: Hoagland's mix and 3 g of gellan gum were suspended in 1 liter of distilled water and thoroughly dissolved therein by heating in a microwave. A fraction of the resultant (15 ml) was injected into a tubular bottle before it was cooled (30 ml was injected into the plate). The herbicide was simultaneously added at the time of injection of the gellan gum medium into the tubular bottle or plate, followed by thorough mixing. Rice hulls were soaked in a 50-fold diluted sodium hypochlorite solution (antiformin) (Wako) for approximately 20 minutes and then thoroughly washed with water. Sterilized seeds were soaked in distilled water and allowed to stand at 27° C. for germination (for approximately 2 days). Germinating seeds were softly planted in the gellan gum medium (plate) containing 0.25 μM BS. These samples, together with a beaker filled with distilled water, were placed in a transparent case, which was then covered with a clear plastic wrap. These samples were grown at 27° C. under fluorescent light illumination (14 hours of a light period and 10 hours of a dark period) for 2 days. Thereafter, rice seeds that were determined to have BS resistance with the use of root elongation as the indicator were transferred to gellan gum media containing pyroxasulfone (tubal bottles) at the final concentrations of 10^−8, 10^−7, 10^−6, and 10^−5M, respectively. Subsequently, these samples, together with a beaker filled with distilled water, were placed in a transparent case, which was then covered with a clear plastic wrap. These samples were grown at 27° C. under fluorescent light illumination (14 hours of a light period and 10 hours of a dark period) for 4 to 5 days, and the plant heights were then measured. Inhibition of shoot growth was determined by comparison to control plants grown in the absence of pyroxasulfone and the concentration for required 50% inhibition (IC50) was determined by the Probit method.
Resistance of rice plants comprising the TaQ8GTC0 gene introduced therein to VLCFAE-inhibiting herbicides was tested in the same manner as with the pyroxasulfone resistance test described above.
FIGS. 7-1 to 7-6 show the results. In FIGS. 7-1 to 7-6, the concentration of 0 μM, the minimal concentration shown in Table 4 (×1), the concentration 4 times higher than the minimal concentration shown in Table 4 (×4), and the concentration 16 times higher than the minimal concentration shown in Table 4 (×16) are shown successively from left to right.

[2] = target: maize-derived GST (GSTI, ZmM16901) (Zea mays, UniProt P12653); settings: Non-Patent Document 11; cited from earlier work
maize-derived GST (GSTI, ZmM16901), sequence (P12653 whole entry): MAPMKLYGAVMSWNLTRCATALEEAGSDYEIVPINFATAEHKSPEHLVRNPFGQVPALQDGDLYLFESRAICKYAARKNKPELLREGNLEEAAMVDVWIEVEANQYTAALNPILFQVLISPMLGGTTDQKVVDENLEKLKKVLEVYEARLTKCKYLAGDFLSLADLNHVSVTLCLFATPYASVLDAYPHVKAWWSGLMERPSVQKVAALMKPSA

ZmGST8 (ZmQ9FQD1) = settings: Non-Patent Document 12; cited from earlier work
[3] = system: wild-type rice plant (Nipponbare); experiment: Sensitivity of wild-type rice (Nipponbare) to VLCFAE-inhibiting herbicides, gellan gum medium; format: in vivo; settings: Oryza sativa, 168 h; for minimal effective concentration: read-out: Minimal inhibitory concentration; for IC50: read-out: I50
Method: Whether or not a rice plant comprising the TaQ8GTC0 gene introduced therein has VLCFAE-inhibiting herbicide resistance was determined on the basis of a difference in sensitivity of rice between transformant and wild-type. Accordingly, the sensitivity of the wild-type rice plant (Nipponbare) to VLCFAE-inhibiting herbicides used in the glutathione conjugation activity test was examined as described below.
The growth inhibition test was carried out using a gellan gum medium. Hoagland's mix and 3 g of gellan gum were suspended in 1 liter of distilled water and thoroughly dissolved therein by heating in a microwave. A fraction of the resultant (15 ml) was poured in a tubular bottle before it was cooled. When the herbicide (an acetone solution) was to be incorporated thereinto, the herbicide was simultaneously added at the time of filling of the gellan gum medium into the tubular bottle, followed by thorough mixing (final acetone concentration: 0.1%). Rice hulls were soaked in a 50-fold diluted sodium hypochlorite solution (antiformin) (Wako) for approximately 20 minutes and then thoroughly rinsed with water. Sterilized seeds were soaked in distilled water and allowed to stand at 27° C. for germination (for approximately 2 days). Germinating seeds were transferred with the sprout side up to a gellan gum medium containing herbicide (the tubular bottle). Subsequently, these samples, together with a beaker filled with distilled water, were placed in a transparent case, which was then covered with a clear plastic wrap. These samples were grown at 27° C. under fluorescent light illumination (14 hours of a light period and 10 hours of a dark period) for 1 week, the plants were sampled, and the plant heights were then measured. Inhibition of shoot growth was determined by comparison to control plant grown in the absence of herbicide and the concentration required for 50% inhibition (IC50) was determined by the Probit method.

TaQ8GTC1-R protein = experiment: Glutathione conjugation activity of the TaQ8GTC1-R protein to CDNB (absorbance at 340 nm); format: biochemical, wheat; settings: 30° C., pH 7.6, n=2
Method: The glutathione conjugation activity to CDNB was assayed in a reaction mixture (1 ml in total) containing 634 μl of 100 mM potassium phosphate buffer (pH 7.6), 300 μl of 3.3 mM reduced glutathione, 33 μl of a purified enzyme (PBS solution containing 20% glycerol), and 33 μl of 30 mM CDNB (ethanol solution). First, reaction mixture except CDNB was prepared, enzyme reaction was started by the addition of CDNB, and the absorbance at 340 nm was monitored at 30° C. The enzyme activity was calculated using a molar extinction coefficient of glutathione conjugate of CDNB (GS-CDNB) (9.6 mM^−1cm^−1). The amount of GS-CDNB produced in a negative control mixture prepared with the addition of PBS containing 20% glycerol instead of the enzyme (i.e., a non-enzymatic reaction group) was designated as the amount of non-enzymatic production.

[4] = system: Arabidopsis thaliana plant comprising the TaQ8GTC0 gene introduced therein; experiment: Sensitivity of Arabidopsis thaliana comprising the TaQ8GTC0 gene to herbicides on MS agar medium; format: in vivo; settings: KLB-718 1-1-5; concentrations of Table 5; 22° C., 14 days
Method: A medium was prepared as described below, so as to examine the pyroxasulfone resistance of the Arabidopsis thaliana plant comprising the TaQ8GTC0 gene introduced therein. At the outset, the Murashige-Skoog (MS) media (1 bag), thiamin hydrochloride (3 mg), nicotinic acid (5 mg), pyridoxin hydrochloride (0.5 mg), and sucrose (10 g) were added into a 1-liter beaker, a pH was adjusted to 5.7, the volume of the content was adjusted to 1 liter, and 8 g (0.8%) of agar was added. The resultant was autoclaved and cooled to room temperature, and pyroxasulfone (an acetone solution) was added thereto. A 30-ml fraction thereof was fractionated into a No. 2 square plate to prepare an MS medium containing pyroxasulfone at a given concentration.
Pyroxasulfone sensitivity of transgenic Arabidopsis thaliana plants was tested with the use of the medium prepared above as described below. A necessary amount of Arabidopsis thaliana dry seeds was agitated in 70% ethanol for 2 minutes and in hypochlorous acid containing 0.02% Triton-X-100 for 15 minutes, followed by washing with sterile water 10 times. Subsequently, the seeds were suspended in 1 ml of the autoclaved 0.1% agar solution, the suspension was thoroughly mixed to prepare a homogeneous solution, and a total of 30 seeds were each placed on the medium surface. The resultant was sealed with a surgical tape, allowed to stand at 4° C. for 2 days, and then transferred to 22° C. for germination.
On the basis of the concentrations above, sensitivity of the Arabidopsis thaliana plant comprising the TaQ8GTC0 gene introduced therein to VLCFAE-inhibiting herbicides was examined. The results are show in FIGS. 13 and 14. The photographs shown in FIGS. 13 and 14 were taken after the plants were grown at 22° C. for 14 days.

[5] = minimal concentration at which growth of wild-type rice is inhibited
[6] = shoot growth, 1 week, Probit method

SMILES | Enzyme activity (glutathione conjugation) (TaQ8GTC0 protein) [μmol/mg protein/15 min] | growth of rice plants comprising the TaQ8GTC0 gene on herbicide medium [1] | conjugation activity [2] | conjugation activity (ZmGST8 (ZmQ9FQD1)) | minimal effective concentration [3, 5] [µM] | IC50 [3, 6] [nM] | glutathione conjugation activity to CDNB (TaQ8GTC1-R protein) [μmol/min/mg protein] | sensitivity of the Arabidopsis thaliana plant comprising the TaQ8GTC0 gene to VLCFAE-inhibiting herbicides [4] | IC50 [3] [nM] | minimal effective concentration [3] [µM]
CCc1cccc(CC)c1N(COC)C(=O)CCl [Alachlor] | 1.5 ± 0.1 | not affected at the minimal concentration, but the growth thereof was inhibited at the 4-fold concentration | high-level conjugation activity | does not exert conjugation activity | 0.5 | 332 | – | – | – | –
COP(=S)(OC)SCC(=O)N(c1ccc(Cl)cc1)C(C)(C)C [Anilofos] | – | – | – | – | 0.5 | 377 | – | – | – | –
O=[N+]([O-])c1ccc(Cl)c([N+](=O)[O-])c1 [CDNB, 2,4-dinitrochlorobenzene] | – | – | – | – | – | – | 2.17 | – | – | –
CCN(CC)C(=O)n1cnc(S(=O)(=O)c2c(C)cc(C)cc2C)n1 [Cafenstrole] | 0.46 ± 0.1 | the growth thereof was inhibited at the minimal concentration | – | – | 0.75 | 131 | – | – | – | –
CCOc1cc(Cl)c(CS(=O)(=O)C2=NOC(C)(C)C2)cc1Cl [Fenoxasulfone, 3-[(2,5-dichloro-4-ethoxybenzyl)sulfonyl]-4,5-dihydro-5,5-dimethyl-1,2-oxazole] | 19.5 ± 8.4 | the growth thereof was not affected at the maximal test concentration | – | – | 0.05 | 54 | – | strong resistance | – | –
CCN(C(=O)n1nnn(-c2ccccc2Cl)c1=O)C1CCCCC1 [Fentrazamide] | 0.93 ± 0.2 | the growth thereof was inhibited at the minimal concentration | – | – | 0.5 | 46 | – | – | – | –
CC(C)N(C(=O)COc1nnc(C(F)(F)F)s1)c1ccc(F)cc1 [Flufenacet] | – | the growth thereof was inhibited at the minimal concentration | – | – | 0.075 | 42 | – | – | – | –
CCC1(CC2(c3cccc(Cl)c3)CO2)C(=O)c2ccccc2C1=O (stereo not drawn) [Indanofan] | – | the growth thereof was inhibited at the minimal concentration | – | – | 0.25 | 61 | – | – | – | –
CN(C(=O)COc1nc2ccccc2s1)c1ccccc1 [Mefenacet] | – | not affected at the minimal concentration, but the growth thereof was inhibited at the 4-fold concentration | – | – | 0.75 | 388 | – | – | – | –
CCc1cccc(C)c1N(C(=O)CCl)C(C)COC (stereo not drawn) [Metolachlor] | 2.2 ± 0.8 | not affected at the minimal concentration, but the growth thereof was inhibited at the 4-fold concentration | does not exert conjugation activity | – | 0.75 | 636 | – | – | – | –
CCCOP(=S)(OCCC)SCC(=O)N1CCCCC1C (stereo not drawn) [Piperophos] | – | the growth thereof was inhibited at the minimal concentration | – | – | – | – | – | – | 1310 | 2.5
